Where two headings read alike, the source gives them in different places.
Experiments:
[1] = test system: Apc^Min+/− mice; test: ApcMin mouse efficacy model; format: in vivo
Description: TNK1 upregulation is reported to play a role in the pathogenic process of intestinal barrier disruption in a transgenic mice model of increased TNK1 expression/activation (PMID: 30320600). Therefore, the efficacy of the compound of structural formula I was evaluated in germline mutant mouse model of intestinal neoplasia and cachexia, Apc^Min+/− model, which is also known to induce gut barrier dysfunction (PMID: 21914473). Apc^Min+/− mice are reported to start the development of tumors at approximately 4 weeks of age. Twenty female Apc^Min+/− mice (JAX Stock No: 002020) were enrolled in the study at the age of 10 weeks. Randomization was done based on the body weight, and animals were divided into four treatment groups (5 mice/group). […] Celecoxib is a COX-2 inhibitor, and was used as a positive control because it has been reported to prevent and regress adenomas in APC model (PMID: 11016626). Mice were sacrificed 2 hours after the last dose of total 10 weeks of dosing (71 days), at the age of 20 weeks. After dosing started, the animals were checked daily for morbidity and mortality.

[2] = test system: 10 cell lines from a variety of tumor types; test: 2D culture viability (counterpart of soft agar assay); format: cell-based
Description: (§1) In cancer research, natural cell characteristics and architectures can often be more closely mimicked by 3D cell models than monolayer cultures. The comparative efficacy of compound of structural formula I was explored in 2D and 3D culture systems using the soft agar colony formation assay and PDXO cultures. In each case, viability of the culture was assessed after treatment with compound of structural formula I.
(§2) Soft Agar Colony Formation Assay. Soft agar colony formation assay was performed in 10 cell lines from a variety of tumor types ranging from lung cancers to colorectal and prostate cancers (Pro Quinase Reaction Biology, Project Number: 17262). A complete list of tumor types used in the assay can be found in Table 7.1.

[3] = test system: DU145 cells; test: Soft agar colony formation assay, 3D vs 2D; format: cell-based; details: for IC50: Homo sapiens, DU-145, DU145, Prostate
Description: as §1, §2

[4] = test system: A549 cells; test: Soft agar colony formation assay, 3D vs 2D; format: cell-based; details: for IC50: Homo sapiens, A549, Lung
Description: as §1, §2

[5] = test system: HT29 cells; test: Soft agar colony formation assay, 3D vs 2D; format: cell-based; details: for IC50: Homo sapiens, HT-29, HT29, Colorectal
Description: as §1, §2

[6] = test system: BL5001B organoid (Bladder); test: PDXO viability assay (Cell Titre Glo); format: cell-based; details: 120 h, 5 days of treatment
Description: as §1
(§3) Viability Assay in Patient-Derived Xenograft Organoid Cell Lines (PDXO). To mimic more closely cancer tissue-like architecture, PDX organoids derived from patient-derived xenograft tissue were utilized. Viability assay was performed in 10 PDXO models, and the IC50 values were assessed after 5 days of treatment with compound of structural formula I using Cell Titre Glo.

[7] = test system: ES6470B organoid (Esophageal); test: PDXO viability assay (Cell Titre Glo); format: cell-based; details: 120 h, 5 days of treatment
Description: as §1, §3

[8] = test system: GA6891B organoid (Gastric); test: PDXO viability assay (Cell Titre Glo); format: cell-based; details: 120 h, 5 days of treatment
Description: as §1, §3

[9] = test system: CR5088B organoid (Colorectal); test: PDXO viability assay (Cell Titre Glo); format: cell-based; details: 120 h, 5 days of treatment
Description: as §1, §3

[10] = test system: LU0743B organoid (Lung); test: PDXO viability assay (Cell Titre Glo); format: cell-based; details: 120 h, 5 days of treatment
Description: as §1, §3

[11] = test system: CR1489B organoid (Colorectal); test: PDXO viability assay (Cell Titre Glo); format: cell-based; details: 120 h, 5 days of treatment
Description: as §1, §3

[12] = test system: LU11873B organoid (Lung); test: PDXO viability assay (Cell Titre Glo); format: cell-based; details: 120 h, 5 days of treatment
Description: as §1, §3

[13] = test system: CR6863B organoid (Colorectal); test: PDXO viability assay (Cell Titre Glo); format: cell-based; details: 120 h, 5 days of treatment
Description: as §1, §3

[14] = test system: 10 PDXO models; test: PDXO viability assay (Cell Titre Glo); format: cell-based; details: all of the organoids tested, except CR6863B
Description: as §1, §3

[15] = test system: LU11693B organoid (Lung); test: PDXO viability assay (Cell Titre Glo); format: cell-based; details: 120 h, 5 days of treatment
Description: as §1, §3

[16] = test system: LU6800B organoid (Lung); test: PDXO viability assay (Cell Titre Glo); format: cell-based; details: 120 h, 5 days of treatment
Description: as §1, §3

[17] = test system: 10 cell lines from a variety of tumor types; test: Soft agar colony formation assay (3D colonies); format: cell-based; details: for IC50: 3D soft agar colonies
Description: as §1, §2

[18] = Four-week capsule stability: assay and related substances (HPLC); format: physicochemical; details: initial (not stored)
Description: Methods: Samples were stored (closed) at 40° C. and […] (RH). Appearance, water content, assay and related substances (HPLC) were tested (n=6), sink dissolution.

[19] = Homo sapiens, HCT-116, HCT116, Colorectal
[20] = 3D soft agar colonies, read-out: 3D IC50

COc1cc(N2CCN(C)CC2)c(Cl)cc1Nc1ncc(Cl)c(Nc2cccnc2N2CCCC2=O)n1 [compound of structural formula I, 1-(3-((5-chloro-2-((5-chloro-2-methoxy-4-(4-methylpiperazin-1-yl)phenyl)amino)pyrimidin-4-yl)amino)pyridin-2-yl)pyrrolidin-2-one]
reduction of spleen size compared to vehicle ([1]; 10 mg/kg): approximately 52%
reduction of spleen size compared to vehicle ([1]; 25 mg/kg): approximately 40%
decrease in number of polyps in the intestine compared to vehicle ([1]; 25 mg/kg once daily oral gavage, 10 weeks, female Apc^Min+/− mice): approximately 49%
mean spleen weight ([1]; 25 mpk): 191 mg
polyp growth ([1]; FIG. 8B): inhibits polyp growth
splenomegaly and inflammation ([1]; FIG. 8C): attenuated
IC50 [2, 19]: 3360 nM
IC50 ([2]; Homo sapiens, Lovo, Colorectal): 3580 nM
IC50 ([2]; PC3, Prostate): > 10000 nM
shift in IC50, 3D colonies vs 2D ([3]; DU145): approximately 19 fold
IC50 ([3]; 2D culture, read-out: 2D IC50): 2700 nM
IC50 [3, 20]: 140 nM
shift in IC50, 3D colonies vs 2D ([4]; A549): approximately 40 fold
IC50 ([4]; 2D culture, read-out: 2D IC50): > 10000 nM
IC50 [4, 20]: 250 nM
shift in IC50, 3D colonies vs 2D ([5]; HT29): approximately 32 fold
IC50 ([5]; 2D culture, read-out: 2D IC50): 7680 nM
IC50 [5, 20]: 240 nM
IC50 [6]: 400 nM
IC50 [7]: 510 nM
IC50 [8]: 1240 nM
IC50 [9]: 3250 nM
IC50 [10]: 2430 nM
IC50 [11]: 2180 nM
IC50 [12]: 440 nM
IC50 [13]: 10100 nM
IC50 [14]: < 10000 nM
IC50 [15]: 2120 nM
IC50 [16]: 400 nM
IC50 ([17]; Homo sapiens, A2058, A2058, Melanoma): 980 nM
IC50 ([17]; Homo sapiens, C-33-A, C33A, Cervical): 900 nM
IC50 [17, 19]: 750 nM
IC50 ([17]; Homo sapiens, LoVo, Colorectal): 2900 nM
IC50 ([17]; Homo sapiens, SW948, SW948, Colorectal): 730 nM
IC50 ([17]; PC3, Prostate): 870 nM
IC50 ([17]; T84, Colorectal): 1500 nM
sensitivity of 3D colonies compared to 2D counterparts (in words) ([17]; most of the cell lines tested): increased sensitivity
Related substance at RRT 0.84 [18]: <0.05%
Related substance at RRT 0.89 [18]: 0.15%
Related substance at RRT 0.97 [18]: 0.15%
Related substance at RRT 1.08 [18]: 0.11%
Related substance at RRT 1.13 [18]: <0.05%
Related substance at RRT 1.20 [18]: 0.09%
Related substance at RRT 1.21 [18]: 0.05%
Related substance at RRT 1.24 [18]: 0.08%
Related substance at RRT 1.29 [18]: <0.05%
Related substance at RRT 1.33 [18]: <0.05%
Total Impurities [18]: 0.63%

Source: patent US20240091226A1, “Forms and Formulations Of A Tyrosine Kinase Non-Receptor 1 (TNK1) Inhibitor” (Sumitomo Pharma Oncology, inc., priority 2021, published 2024)
